Assay results as given in EP0450065A1, “ANTIVIRAL AGENT” (priority 1988, dated 1990).
Where “and” joins values, the source holds several entries; their conditions need not be identical. Equal values may be shown once. Read-outs that look alike come from different tables or passages of the source.

Experiments:
thymidine kinase [TK(v)] = thymidine kinase [TK(v)] (Human herpesvirus 1, UniProt P0DTH5); conditions: viral versus cellular thymidine kinase; cited from earlier work
[1] = test system: herpes simplex virus type 2 (169 strain); assay: Control of CPE (cytopathic effect) manifestation in vero cells; type: cell-based; design: key to Cytopathic effect [CPE] (3days) Average / Cytopathic effect [CPE] (5days) Average / Cytopathic effect [CPE] (6days) Average: CPE score 0-3: 3 = ≥75% cells, 2 = 50%, 1 = 25%, 0 = none; key to Cytopathic effect [CPE] (3days) △CPE / Cytopathic effect [CPE] (5days) △CPE / Cytopathic effect [CPE] (6days) △CPE: difference of mean CPE score (0-3 scale) from untreated control; conditions: HSV-2 (169); for Cytopathic effect [CPE] (3days) △CPE / Cytopathic effect [CPE] (5days) △CPE / Cytopathic effect [CPE] (6days) △CPE: difference from control
Procedure: (§1) Vero cells cultured and grown in a monolayer on microplates to test for cytopathic effect due to viral infection, with solutions of Compound A diluted to varying ratios and solutions of virus diluted to varying ratios added severally thereto in a volume of 0.1 ml, were cultured under the conditions of 5% CO₂ and 37°C and were examined for CPE manifestation under a microscope. The observation was continued for five to six days.
(§2) The degree of CPE brought about by viral infection was rated on the five-point scale, wherein 3 stands for CPE observed on not less than 75% of cultured cells, 2 for CPE observed on 50% of cultured cells, 1 for CPE observed on 25% of cultured cells, 0.5 for occurrence of one to two extremely minute DPE spots, and 0 for perfect absence of recognizable CPE. The CPE scores obtained at the four holes in each microplate were averaged and the difference of the average from the average obtained in the control (omitting the treatment with a chemical) was reported as ΔCPE.
In vitro antiviral activity of Compound A against herpes simplex virus type 2 (169 strain) The test was carried out by following the procedure of Example 3.

[2] = test system: herpes simplex virus type 1 (HF strain); assay: 50% Tissue culture infective dose (TCID50), Read-Munch method, negative logarithm of virus dilution; type: cell-based
Procedure: In vitro antiviral activity of Compound A against herpes simplex virus type 1 (HF strain) Compound A was tested for antiviral effect by the following two methods.
The amount of virus infecting 50% of tissues (TCID₅₀) was determined by the Read-Munch method and expressed in negative logarithm of the maximum radio of dilution of virus. The difference of the amount thus determined from the amount found in the control (omitting the treatment with a chemical) was reported as ΔTCID₅₀. A sample whose ΔCPE's found on the last day of observation and on each of the days spent for the observation exceeded 1.0 was evaluated as effective.
In vitro antiviral effect of Compound A against herpes simplex virus type 1 (HF strain) The test was carried out by following the procedure of Example 3.

[3] = test system: herpes simplex virus type 1 (KOS strain); assay: Control of CPE (cytopathic effect) manifestation in vero cells; type: cell-based; conditions: HSV-1 (KOS), Example 7; for Cytopathic effect [CPE] (3days) △CPE / Cytopathic effect [CPE] (5days) △CPE: difference from control
Procedure: as §1, §2
Antiviral activity of Compound A and Compound B against herpes simplex virus type 1 (KOS strain) The test was carried out by following the procedure of Example 3.

vero cells [4] = conditions: african green monkey
Procedure: Compound A and Compound B were severally dissolved in distilled water in a concentration of 5 mg/ml, to prepare master solutions. Each of the master solutions was suitably diluted with an Eagle's MEM culture medium containing 10% fetal bovine serum. A 0.2-ml portion of the resultant dilution product was placed on vero cells cultured in advance on a microplate and grown in a monolayer, cultured further thereon at 37°C for three to five days. Samples taken severally after three days'and five days'culture were placed under a microscope and tested for cytopathogenic effect brought about by a chemical agent.

vero cells [5] = conditions: control ratio on propagation of vero cells, 72hr
Procedure: Samples of the control group contained 0.1 ml of a culture solution (an Eagle's MEM culture medium containing 10% fetal bovine serum).
The test was conducted by using three culture tubes per group, culturing the cells in the tubes at 37°C for three days, and taking count of live cells by the dye-exclusion method.

[6] = 100 μg/ml, HSV-1 (HF strain), Example 5
[7] = 100 μg/ml, HSV-1 (HF), Example 3
[8] = 5 μg/ml, HSV-1 (HF), Example 3, difference from control
[9] = 10 μg/ml, HSV-1 (HF), Example 3
[10] = 10 μg/ml, HSV-1 (HF), Example 3, difference from control
[11] = 20 μg/ml, HSV-1 (HF), Example 3
[12] = 20 μg/ml, HSV-1 (HF), Example 3, difference from control
[13] = 50 μg/ml, HSV-1 (HF), Example 3
[14] = 50 μg/ml, HSV-1 (HF), Example 3, difference from control
[15] = 100 μg/ml, HSV-1 (HF strain), Example 5, difference from control
[16] = 100 μg/ml, HSV-1 (HF), Example 3, difference from control
[17] = 200 μg/ml, HSV-1 (HF strain), Example 5
[18] = 200 μg/ml, HSV-1 (HF strain), Example 5, difference from control

Sequence of thymidine kinase [TK(v)] (P0DTH5 whole entry): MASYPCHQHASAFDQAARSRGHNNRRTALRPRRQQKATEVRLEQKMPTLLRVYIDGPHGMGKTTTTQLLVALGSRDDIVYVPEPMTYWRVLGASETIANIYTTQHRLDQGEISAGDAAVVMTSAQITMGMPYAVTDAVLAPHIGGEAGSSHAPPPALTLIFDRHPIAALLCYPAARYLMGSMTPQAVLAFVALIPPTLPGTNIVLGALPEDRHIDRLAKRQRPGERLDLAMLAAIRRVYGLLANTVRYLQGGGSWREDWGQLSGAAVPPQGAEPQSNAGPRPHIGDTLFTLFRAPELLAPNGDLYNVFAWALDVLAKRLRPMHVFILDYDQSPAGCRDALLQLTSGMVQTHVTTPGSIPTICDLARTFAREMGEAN

For `Nc1nc2c(ncn2COCCO)c(=O)[nH]1` [ACV, acyclovir, reference compound], the “affinity for TK(v) as for TK(c)” value (thymidine kinase [TK(v)]) is listed as “more than 200 times”, the “Cytopathic effect [CPE] (3days) Average” value ([1]; 100 μg/ml, Example 4) is listed as 0 and the “Cytopathic effect [CPE] (5days) Average” value ([1]; 100 μg/ml, Example 4) is listed as 0. For the same compound, the “Cytopathic effect [CPE] (3days) △CPE” value ([1]; 100 μg/ml, Example 4) was 1.5, the “Cytopathic effect [CPE] (5days) △CPE” value ([1]; 100 μg/ml, Example 4) was 3.05 and the “Cytopathic effect [CPE] (3days) Average” value ([1]; 100 μg/ml, Example 6) was 0. For the same compound, the “Cytopathic effect [CPE] (6days) Average” value ([1]; 100 μg/ml, Example 6) was 0, the “Cytopathic effect [CPE] (3days) △CPE” value ([1]; 100 μg/ml, Example 6) was > 2.5 and the “Cytopathic effect [CPE] (6days) △CPE” value ([1]; 100 μg/ml, Example 6) was 3.0. The “Cytopathic effect [CPE] (3days) TCID50” value [2, 6] was 5.5, the “Cytopathic effect [CPE] (6days) TCID50” value [2, 6] was 4.3 and the “Cytopathic effect [CPE] (3days) TCID50” value [2, 7] was 3.5. The “Cytopathic effect [CPE] (5days) TCID50” value [2, 7] was 3.5, the log reduction at 100 µg/mL ([2]; Human alphaherpesvirus 1, 72 h, read-out: Cytopathic effect [CPE] (3days) ΔTCID50) was 0.8 and the log reduction at 100 µg/mL ([2]; Human alphaherpesvirus 1, 72 h, 100 μg/ml, HSV-1 (HF), Example 3, difference from control, read-out: Cytopathic effect [CPE] (3days) △TCID50) was 2.5. For the same compound, the log reduction at 100 µg/mL ([2]; Human alphaherpesvirus 1, 120 h, 100 μg/ml, HSV-1 (HF), Example 3, difference from control, read-out: Cytopathic effect [CPE] (5days) △TCID50) was 2.5, the log reduction at 100 µg/mL ([2]; Human alphaherpesvirus 1, 144 h, read-out: Cytopathic effect [CPE] (6days) ΔTCID50) was 2 and the “Cytopathic effect [CPE] (3days) Average” value ([3]; 100 μg/ml) was 0. The “Cytopathic effect [CPE] (5days) Average” value ([3]; 100 μg/ml) was 0, the “Cytopathic effect [CPE] (3days) △CPE” value ([3]; 100 μg/ml) was 2.0 and the “Cytopathic effect [CPE] (5days) △CPE” value ([3]; 100 μg/ml) was 3.0.
In the case of K₅BW₁₂O₄₀.15H₂O [Compound A], the “maximum nontoxic doses (MNTD)” value (vero cells [4]) is reported as > 200 µg/mL, the “Cellular toxity (3 days) Maximum nontoxic does” value (vero cells [4]; 72 h) is reported as >200 µg/mL and the “Cellular toxity (5 days) Maximum nontoxic does” value (vero cells [4]; 120 h) is reported as >200 µg/mL. The “Ratio (%)” value (vero cells [5]; 100 μg/ml) was “absolutely no effect”, the “Ratio (%)” value (vero cells [5]; 200 μg/ml) was “absolutely no effect” and the “Cytopathic effect [CPE] (3days) Average” value ([1]; 5 μg/ml, Example 4) was 1.0. The “Cytopathic effect [CPE] (5days) Average” value ([1]; 5 μg/ml, Example 4) was 2.5, the “Cytopathic effect [CPE] (3days) △CPE” value ([1]; 5 μg/ml, Example 4) was 0.5 and the “Cytopathic effect [CPE] (5days) △CPE” value ([1]; 5 μg/ml, Example 4) was 0.5. For the same compound, the “Cytopathic effect [CPE] (3days) Average” value ([1]; 10 μg/ml, Example 4) was 1.0, the “Cytopathic effect [CPE] (5days) Average” value ([1]; 10 μg/ml, Example 4) was 2.0 and the “Cytopathic effect [CPE] (3days) △CPE” value ([1]; 10 μg/ml, Example 4) was 0.5. For the same compound, the “Cytopathic effect [CPE] (5days) △CPE” value ([1]; 10 μg/ml, Example 4) was 1.0, the “Cytopathic effect [CPE] (3days) Average” value ([1]; 20 μg/ml, Example 4) was 1.0 and the “Cytopathic effect [CPE] (5days) Average” value ([1]; 20 μg/ml, Example 4) was 1.25. For the same compound, the “Cytopathic effect [CPE] (3days) △CPE” value ([1]; 20 μg/ml, Example 4) was 0.5, the “Cytopathic effect [CPE] (5days) △CPE” value ([1]; 20 μg/ml, Example 4) was 1.75 and the “Cytopathic effect [CPE] (3days) Average” value ([1]; 50 μg/ml, Example 4) was 0.5. The “Cytopathic effect [CPE] (5days) Average” value ([1]; 50 μg/ml, Example 4) was 0.5, the “Cytopathic effect [CPE] (3days) △CPE” value ([1]; 50 μg/ml, Example 4) was 1.0 and the “Cytopathic effect [CPE] (5days) △CPE” value ([1]; 50 μg/ml, Example 4) was 2.5. For the same compound, the “Cytopathic effect [CPE] (3days) Average” value ([1]; 100 μg/ml, Example 4) was 0, the “Cytopathic effect [CPE] (5days) Average” value ([1]; 100 μg/ml, Example 4) was 0 and the “Cytopathic effect [CPE] (3days) △CPE” value ([1]; 100 μg/ml, Example 4) was 1.5. The “Cytopathic effect [CPE] (5days) △CPE” value ([1]; 100 μg/ml, Example 4) was 3.05, the “Cytopathic effect [CPE] (3days) Average” value ([1]; 100 μg/ml, Example 6) was 0 and the “Cytopathic effect [CPE] (6days) Average” value ([1]; 100 μg/ml, Example 6) was 0. The “Cytopathic effect [CPE] (3days) △CPE” value ([1]; 100 μg/ml, Example 6) was 2.5, the “Cytopathic effect [CPE] (6days) △CPE” value ([1]; 100 μg/ml, Example 6) was 3.0 and the “Cytopathic effect [CPE] (3days) Average” value ([1]; 200 μg/ml, Example 6) was 0. The “Cytopathic effect [CPE] (6days) Average” value ([1]; 200 μg/ml, Example 6) was 0, the “Cytopathic effect [CPE] (3days) △CPE” value ([1]; 200 μg/ml, Example 6) was 2.5 and the “Cytopathic effect [CPE] (6days) △CPE” value ([1]; 200 μg/ml, Example 6) was 3.0. For the same compound, the “Cytopathic effect [CPE] (3days) TCID50” value ([2]; 5 μg/ml, HSV-1 (HF), Example 3) was 5.5, the “Cytopathic effect [CPE] (5days) TCID50” value ([2]; 5 μg/ml, HSV-1 (HF), Example 3) was 5.7 and the “Cytopathic effect [CPE] (3days) △TCID50” value [2, 8] was 0.5. For the same compound, the “Cytopathic effect [CPE] (5days) △TCID50” value [2, 8] was 0.3, the “Cytopathic effect [CPE] (3days) TCID50” value [2, 9] was 5.7 and the “Cytopathic effect [CPE] (5days) TCID50” value [2, 9] was 5.7. The “Cytopathic effect [CPE] (3days) △TCID50” value [2, 10] was 0.3, the “Cytopathic effect [CPE] (5days) △TCID50” value [2, 10] was 0.3 and the “Cytopathic effect [CPE] (3days) TCID50” value [2, 11] was 5.7. The “Cytopathic effect [CPE] (5days) TCID50” value [2, 11] was 5.7, the “Cytopathic effect [CPE] (3days) △TCID50” value [2, 12] was 0.3 and the “Cytopathic effect [CPE] (5days) △TCID50” value [2, 12] was 0.3. The “Cytopathic effect [CPE] (3days) TCID50” value [2, 13] was 5.7, the “Cytopathic effect [CPE] (5days) TCID50” value [2, 13] was 5.7 and the “Cytopathic effect [CPE] (3days) △TCID50” value [2, 14] was 0.3. For the same compound, the “Cytopathic effect [CPE] (5days) △TCID50” value [2, 14] was 0.3, the “Cytopathic effect [CPE] (3days) TCID50” value [2, 6] was 4.7 and the “Cytopathic effect [CPE] (6days) TCID50” value [2, 6] was 5.0. For the same compound, the “Cytopathic effect [CPE] (3days) ΔTCID50” value [2, 15] was 1.6, the “Cytopathic effect [CPE] (6days) ΔTCID50” value [2, 15] was 1.3 and the “Cytopathic effect [CPE] (3days) TCID50” value [2, 7] was 5.3. The “Cytopathic effect [CPE] (5days) TCID50” value [2, 7] was 5.3, the “Cytopathic effect [CPE] (3days) △TCID50” value [2, 16] was 0.7 and the “Cytopathic effect [CPE] (5days) △TCID50” value [2, 16] was 0.3. The “Cytopathic effect [CPE] (3days) TCID50” value [2, 17] was <3.5, the “Cytopathic effect [CPE] (6days) TCID50” value [2, 17] was <3.5 and the “Cytopathic effect [CPE] (3days) ΔTCID50” value [2, 18] was >2.8. The “Cytopathic effect [CPE] (6days) ΔTCID50” value [2, 18] was > 2.8 and >2.5, the ΔTCID₅₀ ([2]; varying concentrations of from 5 to 100 µg/ml, fifth day of observation, HSV-1 (HF), Example 3) was 0.3 and the “Cytopathic effect [CPE] (3days) Average” value ([3]; 100 μg/ml) was 0. The “Cytopathic effect [CPE] (5days) Average” value ([3]; 100 μg/ml) was 0, the “Cytopathic effect [CPE] (3days) △CPE” value ([3]; 100 μg/ml) was 2.0 and the “Cytopathic effect [CPE] (5days) △CPE” value ([3]; 100 μg/ml) was 3.0. For the same compound, the “Cytopathic effect [CPE] (3days) Average” value ([3]; 200 μg/ml) was 0, the “Cytopathic effect [CPE] (5days) Average” value ([3]; 200 μg/ml) was 0 and the “Cytopathic effect [CPE] (3days) △CPE” value ([3]; 200 μg/ml) was 2.0. The “Cytopathic effect [CPE] (5days) △CPE” value ([3]; 200 μg/ml) was 3.0.
